Laboratory results as given in patent publication US20210401867A1, “PHOTOSENSITIZERS AND METHOD OF TREATING CANCER USING THE SAME” (Cheng-Wen Wu, priority 2018, published 2021).

Legend:
γH2AX = assay: p-γH2AX immunofluorescent staining of FaDu cells; type: cell-based, human; settings: 1 μM BrdU with 1 Gy of 14 keV NR
Description: Referring to FIGS. 23A and 23B, p-γH2AX immunofluorescent staining for evaluating DNA damages induced by BrdU, RS2000, BrdU with RS2000, NR, and NR with BrdU, are provided in accordance with exemplary embodiments of the present disclosure. γH2AX is the histone H2AX protein with phosphorylated amino acid on serine 139. γH2AX is a specific marker for DNA DSBs. FaDu cells are seeded on a chamber slides, and are fixed with −20° C., 100% ethanol under room temperature for 15 minutes. The fixed chamber slides are washed with PBS, and permeablized with 0.1% Triton X-100 for 10 minutes. Then, the chamber slides are blocked with 5% milk in PBS for 30 minutes at room temperature, and incubated with primary antibody (anti-γH2AX) overnight at 4° C. FaDu cells in the chamber slides are then washed with PBS, and incubated with secondary antibody which is conjugated by a fluorescent dye for 1 hour at room temperature. The nuclei were countestained with 5 μg/ml of DAPI (4′,6-diamidino-2-phenylindole). The stained FaDu cells are then being mounted and subjected to microscopic examination with a confocal laser scanning microscope (ZEISS LSM780). The number of p-γH2AX are quantified using Metamorph software. […] FIG. 23B is a quantitative result of FIG. 23A. […]

CASPASE-3 = assay: immunohistochemical (IHC) examination of subcutaneous FaDu tumor cells; type: in vivo, mouse; settings: 1 day after treatment
Description: One day after the tumorigenic mouse are treated with IdU, or the combination of IdU and 4.5 Gy of NR/RS2000, the subcutaneous FaDu tumor cells are subjected to immunohistochemical (IHC) examination. […] The control group in FIGS. 15A-15F or FIGS. 16A-16B is the subcutaneous FaDu tumor cells without any treatment. […] CASPASE-3 is directly involved in apoptosis, therefore the combination of IdU and NR is proven to induce tumor growth inhibition.

[1] = system: subcutaneous malignant solid tumor comprised of FaDu cells; assay: in vivo tumor growth of subcutaneous FaDu solid tumor on tumorigenic mice; settings: for tumor growth inhibition rate: end of the in vivo test; for relative proliferation rate of solid tumor: repeated after 7 days
Description: FIG. 12 is a schematic diagram of an in vivo animal experiment, in accordance with an exemplary embodiment of the present disclosure. A subcutaneous malignant solid tumor comprised of FaDu cells (tumor size is about 200 mm^3) on the tumorigenic mice is injected with 0.5 μg/μl of IdU. 4 hours after the injection, the solid tumor is then irradiated by 4 Gy 33 keV NR. The IdU-NR treatment are repeated on the same tumor after 7 days. Other groups of mouse are only injected with 50 μg of IdU or only irradiated with 4 Gy 33 keV NR, and the IdU injection or the NR irradiation is repeated on the same tumor after 7 days. The control group is the mice without NR, IdU, or IdU-NR treatment.
The subcutaneous malignant solid tumor comprised of FaDu cells on the tumorigenic mice is treated with IdU, NR, or IdU and NR, following the same experiment procedure as depicted in FIG. 12. The relative proliferation rates of the solid tumors are calculated by measuring the size of the solid tumor on Days 3, 7, 10, 14, 17, 21, 24, and 28, respectively. […] The solid tumor of IdU-NR group has the lowest relative proliferation rate among other groups, and the relative proliferation rate of IdU-NR group is even lower than 100% (p<0.05), this indicates the tumor size is smaller after the IdU and NR treatment.
To further investigate a therapeutically effective dosage for the combination of IdU and NR, another series of in vivo experiments are conducted, see FIGS. 15A-15F. The experiment procedure is the same with the procedure described in FIG. 12. FIG. 15A and FIG. 15B show cells irradiated with 2.25 Gy NR and 2.25 Gy RS2000, FIG. 15C and FIG. 15D show cells irradiated with 4.5 Gy NR and 4.5 Gy RS2000, and FIG. 15E and FIG. 15F show cells irradiated with 9 Gy NR and 9 Gy RS2000, in accordance with exemplary embodiments of the present disclosure. Control groups in FIGS. 15A-15F are FaDu cells isolated from the subcutaneous solid tumor of the tumorigenic mouse without treatment of IdU or any radiation. The tumor growth index in FIGS. 15A-15F are calculated based on tumor volumes: for each of the tumorigenic mouse, the tumor volume on Day 0 is set as 100%, and relative volume percentages in the following days relative to Day 0 are presented as the tumor growth index (%).

Compound | γH2AX expression (immunofluorescent staining) (γH2AX) | apoptotic cells (IHC, qualitative) (CASPASE-3; IdU and 4.5 Gy of NR, versus other groups) | CASPASE-3 expression in the tumor cells (IHC, quantitative) (CASPASE-3; IdU and NR, versus other treatments) | tumor growth inhibition rate ([1]; IdU 50 μg and 4.5 Gy NR) [%] | tumor growth inhibition rate ([1]; IdU 50 μg and 9 Gy NR) [%] | tumor growth versus RS2000 only ([1]; IdU 50 μg and RS2000 (2.25, 4.5, 9 Gy)) | relative proliferation rate of solid tumor ([1]; IdU-NR group, 0.5 μg/μl IdU plus 4 Gy 33 keV NR, p<0.05) | relative proliferation rate of solid tumor ([1]; IdU-only group, 50 μg of IdU, to Day 28) | tumor growth (tumor growth index) ([1]; treated only with IdU, 50 μg)
O=c1[nH]c(=O)n([C@H]2C[C@H](O)[C@@H](CO)O2)cc1Br [BrdU, bromodeoxyuridine] | significant amount of γH2AX expression | – | – | – | – | – | – | – | –
O=c1[nH]c(=O)n([C@H]2C[C@H](O)[C@@H](CO)O2)cc1I [IdU, iododeoxyuridine] | – | more apoptotic cells | more pronounced CASPASE-3 expression | 68 | 83 | does not significantly inhibit the tumor growth | lower than 100% | lower relative proliferation rate than the control group | not inhibited
